Earlier results in patent publication US20240207248A1, “METHODS, KITS AND COMPOSITIONS FOR REDUCING CHROMOSOMAL INSTABILITY IN CANCER CELLS” (BARUCH S. BLUMBERG INSTITUTE, priority 2021, published 2024).

Test system: aneuploid primary mouse embryonic fibroblasts carrying Robertsonian fusion chromosomes
Conditions: energy and proteotoxic stress-inducing compounds

Compound	selectivity against aneuploid primary mouse embryonic fibroblasts
C=CCNC1=C2C[C@@H](C)C[C@H](OC)[C@H](O)[C@@H](C)/C=C(\C)[C@H](OC(N)=O)[C@@H](OC)/C=C\C=C(/C)C(=O)NC(=CC1=O)C2=O [17-AAG]	showed selectivity
NC(=O)c1ncn([C@@H]2O[C@H](CO)[C@@H](O)[C@H]2O)c1N [AICAR]	showed selectivity
